# In patent publication US7893299B2, “Interleukin-1 and tumor necrosis factor-αmodulators; syntheses of such modulators and methods of using such modulators” (Nereus Pharmaceuticals, Inc., priority 2005, dated 2011):
# Tests used:
# [1] = tested on: NF-κB p65 subunit nuclear translocation; assay type: cell-based; details: LPS-stimulated RAW264.7; 5, 10 and 20 μM
# Description: Cells were pretreated with NPI-1387 (compound 24 under scheme 4 above) at 5, 10 and 20 μM for 1 hr, and then stimulated with 50 ng/ml LPS for 30 min. Coverslips were transferred to clean plates, washed twice in Dulbecco's phosphate buffered saline (DPBS), fixed in 10% formaldehyde for 10 min, and permeabilized with 0.2% Triton X-100 for additional 10 min. Blocking medium (DPBS, 2% BSA, 0.1% Triton X-100) was added for 2 h, and removed by aspiration. Polyclonal goat anti-p65 antibody (Santa Cruz Biotechnology) was added at a 1:1000 dilution for 1 hr. The wells were washed 3 times with DPBS containing 0.1% Triton X-100, and […] of Alexa-488-conjugated anti-goat antibody (1:1000 dilution, Molecular Probes) were added for 30 min. Wells were washed again, and the coverslips were mounted face-down on microscope slides using Vectashield (Vector) mounting medium. Slides were observed under an Olympus fluorescent microscope, images acquired using a Magnafire digital camera, and processed using Adobe Photoshop.
# Panc1 and HS766T = experiment: TRAIL resistance of human pancreatic cancer cell lines; assay type: cell-based
# Source text: (§1) Novel diterpene inhibitors of NFκB derived from acanthoic acid (NPI-1342 (Formula IIB-a1) and NPI-1387; compound 24 under scheme 4 above) show measurable effects in human pancreatic cancer cell lines in vitro. Seven of the nine cell lines were moderately sensitive to apoptosis induced by death receptor ligand Tumor Necrosis Factor (TNF) related apoptosis-inducing ligand (TRAIL). […] Specific silencing of NFkB/p65 expression mimicked these effects. Furthermore, combination treatment of Salinosporamide A and either NPI-1342 or NPI-1387 led to induction of apoptosis as measured by PI FACS analysis. Specifically, levels of DNA fragmentation increased from 4% to 50% in HS766T cells and from 4% to 52% in Panc1 cells. The inhibitory effects of NPI-1342, NPI-1387 on NFκB were evaluated by Electromobility Shift Assays and confirmed by confocal microscopy.
# [2] = tested on: bortezomib-resistant DHL-4 lymphoma cells; experiment: viability of bortezomib-resistant DHL-4 lymphoma cells; assay type: cell-based; details: 48 hours; 0, 12, 25 and 50 uM
# Description: Two cell-based assays were treated with NPI-1387 for 48 hours at concentrations of 0, 12, 25 and 50 uM. Both Bcl-2-overexpressing MM.1S cells and bortezomib-resistant DHL-4 lymphoma cells were used and the percentage of viable cells of each was recorded. […] (See FIG. 67).
# [3] = tested on: MM cell lines (MM.1S, MM.1R, OCI-MyS, OPM-1, Dox-40); experiment: viability of MM cell lines (MM.1S, MM.1R, OCI-MyS, OPM-1, Dox-40); assay type: cell-based; details: 48 h; all cell lines; read-out: IC50 range, decrease in cell viability
# Description: (§2) Transcription factor NF-KB is linked to growth and survival of multiple myeloma (MM) cells and blockade of NF-KB activity. NPI-1387 (Formula IIB-b1; compound 24 shown above under scheme 4), a potent small-molecule inhibitor of upstream activator of NF-KB, was administered to MM cells and its effect on the viability of MM cells, including those resistant to conventional agents dexamethasone or doxorubicin is shown.
# HS766T cells = experiment: apoptosis by PI FACS analysis, HS766T; assay type: cell-based, human; details: combination treatment with Salinosporamide A, increased from 4%
# Source text: as §1
# Panc1 cells = experiment: apoptosis by PI FACS analysis, Panc1; assay type: cell-based, human; details: combination treatment with Salinosporamide A, increased from 4%
# Source text: as §1
# MM cells = experiment: apoptosis of MM cells (DAPI, PARP cleavage, caspases); assay type: cell-based
# Description: as §2
# Besides nuclear condensation, NF-KB inhibitor triggered proteolytic cleavage of poly (ADP ribose) polymerase (PARP), a hallmark of apoptosis.
# Both caspase-8 and caspase-9 activate downstream caspase-3. […] Collectively, these findings show the efficacy of NF-KB inhibitor to enhance MM cell killing, overcome drug-resistance, and improve patient outcome in MM.
# PC-3 colony formation = experiment: PC-3 clonogenicity assay; assay type: cell-based
# Description: PC-3 cells in 10 cm tissue culture dishes (200 cells/dish) were treated with 5 μM, 10 μM and 20 μM NPI-1387 for 0.5-24 hours in triplicates. DMSO was used as vehicle control. After each time point of drug treatment, the medium was removed, the dishes were washed two times with Dulbecco's phosphate buffered saline (DPBS), and supplied with fresh medium. Cells were cultured for 10 days with the medium replenished every 3 days. On the 10th day, dishes were washed with cold DPBS, fixed for 10 minutes in ice-cold 100% methanol at 4° C., and the colonies were stained with 0.5% (w/v) crystal violet. Colonies were counted manually, and the results expressed as % of colonies in relation to their respective vehicle control.
# IκBα phosphorylation = experiment: phosphorylation level of IκBα in LPS-stimulated HPBMC (western blot); assay type: cell-based, Human; details: 13 μM, 20 ng/ml LPS, compared with DMSO control
# Description: One ml/well of 3×10^6/ml HPBMC were seeded in 6-well plate in LGM-3 medium and cultured for 12 hr at 37° C., 5% CO2 and 95% humidified air. Final concentration of 13 μM for formula (IIB-A1) (or 10 μM for TTL3) was added to HPBMC for 1 hr. DMSO was used as a control. Cells were then stimulated with 20 ng/ml LPS diluted in LGM-3 medium from 1 mg/ml stock solution for 30 min, 1 hr, 2 hr and 4 hr. At the end of each time point, cells were harvested by centrifugation and cell pellets were washed once in ice-cold 1× Dulbecco's Phosphate buffered Saline (DPBS). To prepare samples for SDS Polyacrylamide Gel Electrophoresis (SDS-PAGE), cells were lysed in RIPA buffer (50 mM Tris-HCl, pH7.4, 0.9% NaCl, 1% Triton X-100, 0.25% Na-deoxycholate, 1 mM EDTA, 2 mM Na3VO4 and 1× protease inhibitors cocktail) for 15 min on ice. Cell lysates were cleared by centrifugation at 14,000 rpm, 4° C. for 10 min. Protein concentrations of cell lysates were determined by BCA protein assay kit prior to SDS-PAGE. Equal amount of proteins from various cell lysates were resolved on 10% NuPage MES precast gels and transferred to nitrocellulose membranes according to the manufacturer's instructions. […]
Compound,nuclear translocation of NF-κB (p65) / activated IRAK1 [1],TRAIL resistance (Panc1 and HS766T),percentage of viable cells [2],IC50 [3],levels of DNA fragmentation (HS766T cells),levels of DNA fragmentation (Panc1 cells),"Apoptic signaling in MM cells, intrinsic and extrinsic pathways (MM cells)",caspase activation (MM cells; 25 μM),"apoptosis (nuclear condensation, PARP cleavage) (MM cells; respective IC50 for 48 h)","PC-3 colony formation (PC-3 colony formation; 5 μM, 10 μM and 20 μM for 0.5-24 hours)",PC-3 colony formation (PC-3 colony formation; exposure of 6 hr to 20 μM),level of IκBα phosphorylation in LPS-stimulated HPBMC (IκBα phosphorylation; listed as Formula (IIB-a1)),level of IκBα phosphorylation in LPS-stimulated HPBMC (IκBα phosphorylation; listed as formula (IIB-A1))
"C=CC(=O)C1(C)CCCC2(C)C3=CCC(C)(C=C)C[C@@H]3CC[C@H]12 (stereo in doubt) [NPI-1387, 1-[(1S,4aS,7R)-1,4a,7-Trimethyl-7-vinyl-1,2,3,4,4a,6,7,8,8a,9,10,10a-dodecahydro-1-phenanthrenyl]-2-propen-1-one]",inhibits the NF-κB p65 subunit nuclear translocation in a dose-dependent manner,reversed TRAIL resistance,marked decrease in the percentage of viable cells,25 to 40 µM,50%,52%,triggered by NPI-1387,"induces activation of caspase-8, caspase-9, followed by caspase-3 cleavage",significant apoptosis,inhibits the colony formation of PC-3 cancer cells in a time-dependent and dose-dependent fashion,completely abolish,,
"C=C[C@@]1(C)CCC=C2[C@H]1CC[C@@H]1[C@](C)(C(=O)NC3CCCCC3)CCC[C@@]21C [Formula (IIB-A1), N-Cyclohexylamide Derivative of TTL]",,,,,,,,,,,,decrease,effectively inhibited
